This note sets out measurements from patent US20260021046A1, “LIPID NANOPARTICLE AND PHARMACEUTICAL COMPOSITION” (NATIONAL UNIVERSITY CORPORATION HOKKAIDO UNIVERSITY, priority 2022, published 2026).

Data set [1] concerns activated hepatic stellate cell line LX-2. The data set can be described thus: EGFP mRNA delivery and transfection screening by FACS. In kind it is cell-based. To be noted: LX-2 cells; EGFP mRNA lipid nanoparticles, 250 ng mRNA per well. As to the method:
Fourteen types of lipid nanoparticles prepared were screened with activated hepatic stellate cell line LX-2 (Merck (Germany) and hepatocyte line FL83B (ATCC, USA).
Twenty-four hours prior to the experiment, cells were seeded in 6-well plates at 1×10^5 cells/well and incubated at 37° C. The medium was aspirated and the cells were washed with (−) PBS and then treated with lipid nanoparticles encapsulating EGFP mRNA (TriLink BioTechnologies, USA) in 1.5 ml of growth medium for 24 hours. The amount of mRNA per well was 250 ng. Cells were then washed with (−) PBS and incubated in fresh medium for an additional 21 hours. The median fluorescence intensity of EGFP and the percentage of transfected cells were evaluated by fluorescence activated cell sorting (FACS) using a flow cytometer (Cytoflex, Beckman Coulter, USA).
(A flow cytometer gives signals particle by particle.)

Data set [2] can be described thus: Apparent pKa of lipid nanoparticles using TNS. To be noted: lipid nanoparticles encapsulating mRNA prepared with the lipid, 37° C.
Description: The apparent acid dissociation constant pKa of the lipid membrane of a lipid nanoparticle is measured in a buffer at 37° C. using 6-p-toluidino-2-naphthalenesulfonic acid (TNS) (see Examples).
The apparent pKa of the lipid nanoparticles was also measured using 6-p-toluidino-2-naphthalenesulfonic acid (TNS) (see NPL 14). Specifically, in each well of a 96-well plate, lipid (0.5 mM) of the lipid nanoparticles and TNS (0.6 mM) were added to 200 μL of a buffer solution and mixed. The buffer solution was 20 mM citrate buffer (pH3.50 to 5.50), 20 mM sodium phosphate buffer (pH6.00 to 8.00), or 20 mM Tris-HCl buffer (pH8.00 to 9.00), and each buffer solution contained 150 mM NaCl. At this time, the final concentration of lipid was adjusted to 30 µM and the final concentration of TNS was adjusted to 6 μM. Fluorescence (excitation wavelength 321 nm, fluorescence wavelength 447 nm) was then measured at 37° C. using a plate reader (Enspire 2300 multilabel reader, Perkin Elmer). The pKa was defined as the pH value showing 50% of the maximum fluorescence intensity. • [NPL 14]
A short description of data set [3]: Average particle size, PDI, zeta potential (dynamic light scattering) and RNA encapsulation efficiency (RiboGreen) of lipid nanoparticles. It counts as physicochemical. To be noted: CL15H6 lipid nanoparticles with SMO-siRNA. Here is the method: The average particle size, particle size distribution, and zeta potential of the lipid nanoparticles were measured using a Zetasizer Nano ZS (Malvern Instruments Ltd, UK) by dynamic light scattering and the form of lipid nanoparticle was measured using a transmission electron-microscope as described in NPL 12. The efficiency of mRNA encapsulation was estimated by RiboGreen fluorometry as described in NPL 13. Although the respective values vary depending on the type of pH-sensitive cationic lipid, the composition of the lipids constituting the lipid nanoparticles, the preparation conditions of the lipid nanoparticles, and the like, the average particle size of the lipid nanoparticles was in the range of 80 to 350 nm, the PDI was in the range of 0.05 to 0.4, the zeta potential was in the range of −16 to +5 mV, and the efficiency of mRNA encapsulation was 75 to 95%. • [NPL 12] Mahmoud A. Younis, et al., “A Multifunctional Lipid-Based Nanodevice for the Highly Specific Codelivery of Sorafenib and Midkine siRNA to Hepatic Cancer Cells”, Molecular Pharmaceutics, Vol. 16, pp. 4031-4044 • [NPL 13] Mahmoud M. Abd Elwakil, et al., “Engineered &-decalactone lipomers bypass the liver to selectively in vivo deliver mRNA to the lungs without targeting ligands”, Materials Horizons, Vol. 8, pp. 2251-2259
The average particle size, particle size distribution, and zeta potential of the lipid nanoparticles were measured in the same manner as in Example 1 to estimate the efficiency of SMO-siRNA encapsulation. The relationship between the flow rate ratio of the aqueous phase to the organic phase, the average particle size, particle size distribution, zeta potential, and SMO-siRNA encapsulation efficiency of the lipid nanoparticles prepared at the same flow rate ratio when CL15H6 was used as the pH-sensitive cationic lipid is shown in Table 3 below. In the subsequent experiments, lipid nanoparticles were prepared at a ratio of 4:1 (aqueous phase: organic phase), which provided the highest encapsulation efficiency, the smallest average particle size, and the smallest PDI.

The subject of a further data set is SMO mRNA. The data set can be described thus: In vivo SMO mRNA knockdown in liver tissue by qRT-PCR. Set-up: species or system mice. To be noted: 24 hours. As to the method:
TAA-induced liver fibrosis model mice were prepared in the same manner as in Example 1, and SMO-siRNA-encapsulated lipid nanoparticles were intravenously administered to the mice via the tail vein so that the amount of RNA per kg of body weight was 0.5 mg/kg. 24 hours after the administration, the mouse livers were collected. The ratio of the amount of SMO mRNA to the amount of GAPDH mRNA in the liver tissue was confirmed by qRT-PCR. The SMO gene is expressed only in hepatic stellate cells in the liver.
Next, a lipid composition containing CL15H6 and SMO-siRNA were mixed in different ratios to prepare lipid nanoparticles with different nitrogen/phosphate (N/P) ratios. Specifically, lipid nanoparticles were prepared with N/P ratios of 0.5, 1, 2, 4, 8, 12, 16, and 20. The prepared lipid nanoparticles were intravenously administered to mice with liver fibrosis so that the amount of RNA per kg of body weight was 0.5 mg/kg, and the ratio of the amount of SMO mRNA to the amount of GAPDH mRNA in the liver tissue was confirmed 24 hours later.
Next, the relationship between the dosage amount of SMO-siRNA and the ratio of the amount of SMO mRNA to the amount of GAPDH mRNA in the liver tissue was examined. For comparison, the relationship between the dosage amount of control siRNA (siCtrl) and the ratio of SMO mRNA to GAPDH mRNA in hepatic stellate cells was also examined.
Lipid nanoparticles encapsulating a mixture of the above SMO-siRNA and TGFβ1-siRNA at a ratio of 1:1 were prepared by using CL15H6, the above SMO-siRNA (SEQ ID NOs: 1 and 2) targeting the mRNA of the SMO gene and the TGFβ1-siRNA (SEQ ID NOS: 3 and 4) targeting the mRNA of the TGFβ1 gene and having the sequence shown in Table 4 below. The prepared lipid nanoparticles were intravenously administered to mice with liver fibrosis so that each of the amounts of SMO-siRNA and of TGFβ1-siRNA per kg of body weight was 0.25 mg/kg, and 24 hours later, the ratios of the amounts of SMO mRNA and of TGFβ1 mRNA to the amount of GAPDH mRNA in the liver tissue was confirmed.
Background: Quantitative PCR measures a nucleic acid by following its amplification.

Where [4] appears, read: aqueous phase:organic phase 2:1.
Where [5] appears, read: aqueous phase:organic phase 3:1.
The mark [6] stands for this setting: aqueous phase:organic phase 4:1.
[7] abbreviates: aqueous phase:organic phase 5:1.
The mark [8] stands for this setting: aqueous phase:organic phase 9:1.

Regarding `CCCCCCCCCCCCCCCC(=O)OCCCCCCC(O)(CCCCCCOC(=O)CCCCCCCCCCCCCCC)CCCCN(C)C` [CL1D6, 7-(4-(dimethylamino)butyl)-7-hydroxytridecane-1,13-diyl dipalmitate], the “mRNA delivery efficiency (median fluorescence intensity of EGFP)” value (shortened to “mRNA delivery efficiency”) in data set [1] is recorded as “high”.

For `CCCCCCCC/C=C\CCCCCCCC(=O)OCCCCCCC(O)(CCCCCCOC(=O)CCCCCCC/C=C\CCCCCCCC)CCCCN(C)C` [CL1H6, 7-(4-(dimethylamino)butyl)-7-hydroxytridecane-1,13-diyl dioleate], the “mRNA delivery efficiency” value in data set [1] was “high”.

On to `CCCCCCCCC(CCCCCC)C(=O)OCCCCCCC(O)(CCCCCCOC(=O)C(CCCCCC)CCCCCCCC)CCCCN(CCC)CCC` (stereo not shown) [CL4F6], for which, in data set [2], the “Apparent pKa” value came out at 6.00.

In the case of `CCCCCCCC/C=C\CCCCCCCC(=O)OCCCCCCC(O)(CCCCCCOC(=O)CCCCCCC/C=C\CCCCCCCC)CCCCN(CCC)CCC` [CL4H6], in data set [2], the “Apparent pKa” value worked out at 6.25.

As to `CCCCCCCCC(CCCCCC)C(=O)OCCCCCCC(O)(CCCCCCOC(=O)C(CCCCCC)CCCCCCCC)CCCCOC(=O)C1CCN(C)CC1` (stereo not shown) [CL15F6, 7-hydroxy-7-(4-((1-methylpiperidine-4-carbonyl)oxy)butyl)tridecane-1,13-diyl bis(2-hexyldecanoate)], the “mRNA delivery efficiency” value in data set [1] was “high”.

As to `CCCCCCCC/C=C\CCCCCCCC(=O)OCCCCCCC(O)(CCCCCCOC(=O)CCCCCCC/C=C\CCCCCCCC)CCCCOC(=O)C1CCN(C)CC1` [CL15H6, 7-hydroxy-7-(4-((1-methylpiperidine-4-carbonyl)oxy)butyl)tridecane-1,13-diyl dioleate], the Average particle size in data set [3] (setting [4]) was determined as 135.72 nm; in data set [3] (setting [5]), 72.5 nm; in data set [3] (setting [6]) it was 53.45 nm; in data set [3] (setting [7]), 57.12 nm; in data set [3] (setting [8]) it was 58.53 nm. For the same compound, the Encapsulation efficiency in data set [3] (setting [4]) turned out to be 66.12%; in data set [3] (setting [5]), 92.33%; in data set [3] (setting [6]) it was 94.06%; in data set [3] (setting [7]), 89.19%; in data set [3] (setting [8]), 75.55%. For the same compound, the PDI in data set [3] (setting [4]) was 0.280; in data set [3] (setting [5]), 0.192; in data set [3] (setting [6]), 0.093; in data set [3] (setting [7]), 0.169; in data set [3] (setting [8]) it was 0.217. The Zeta potential is on record as −6.81 mV in data set [3] (setting [4]); −3.75 mV in data set [3] (setting [5]); −3.35 mV in data set [3] (setting [6]); −5.08 mV in data set [3] (setting [7]); −8.2 mV in data set [3] (setting [8]). For the same compound, the “mRNA delivery efficiency” value in data set [1] is recorded as “high”. The “amount of SMO mRNA (ratio to GAPDH mRNA) in liver tissue” value is recorded as “lowest” in the data set on SMO mRNA (CL15H6 SMO-siRNA lipid nanoparticles, 0.5 mg/kg iv, N/P ratio 4 among 0.5 to 20) and “significantly reduced” in the data set on SMO mRNA (SMO-siRNA lipid nanoparticles, 0.5 mg/kg RNA iv, versus HEPES buffer control).
